# Data published in patent US20090253654A1 (priority 2005, published 2009).
# Legend:
# in vivo = conditions: for Co (Brain), highest concentration achieved in mouse brain: i.v. injection of 3 mg/kg; for Kp: in vivo
# Description: FIG. 5: Pharmacokinetics of pro-galantamine Gln-1062 (3 mg/kg) in the mouse. […] FIG. 5b is an excerpt (“zoom”) of FIG. 5a, showing the concentration range between 0.00 and 1.00 μg/g (substance/body weight) more in detail.
# Co is the highest pro-galantamine concentration (ng/ml) achieved in mouse brain after i.v. injection of 3 mg/kg of pro-galantamine. R-Pro is the brain-to-blood concentration ratio of pro-galantamine, R-Gal that of galantamine under these experimental conditions. For comparison, Co and R-Gal are also provided for i.v. injection of the same amount of galantamine.
# Determination of the pharmacokinetic profiles of Gln-1062 and its cleavage product galantamine in blood and brain. Determine the brain-to-blood concentration ratios of Gln-1062 and its cleavage product galantamine, and assess the blood-brain barrier penetration capacities.
# Analytical method for estimation of Gln-1062 was evaluated for its linearity, precision & accuracy and recovery in SAM blood and brain homogenate using LC/MS/MS.
# Blood samples were collected from the retro-orbital plexus. 0.5 ml of blood was collected into a pre-labeled polypropylene micro centrifuge tube containing sodium citrate as the anticoagulant, and kept on ice.
# Immediately after blood withdrawal, brain was perfused with phosphate buffer saline (pH 7.4), removed and frozen on dry ice.
# Brain samples were thawed on ice and weighed. n appropriate volume ice cold homogenizing media (methanol:water::20:80,v/v) added. n ice, homogenized the brain sample with the polytron homogenizer and make up the volume with homogenizing media to get 1 gm of brain per 4 mL of homogenate. after homogenizing, immediately freezed the brain homogenate samples at −80° C. until analysis.
# [1] = system: scopolamine-induced amnesia in mice; test: Reversal from scopolamine-induced amnesia in mice, T-maze alternation; type: in vivo, mouse; conditions: i.p.
# Description: Scopolamine induces a memory deficit that can be measured by […] alternation in a T-maze trial. The cognition enhancing drugs were i.p. injected at several different doses together with scopolamine 20 min before a T-maze trial. Recovery was measured as a function of dose, and the EC50 was determined for each drug.
# Analysis of variance (ANOVA) was performed on the result data.
# [2] = biological target: T1, a4β2 neuronal nicotinic acetylcholine receptor (Homo sapiens, UniProt P17787+P43681); test: Whole-cell patch clamp recording of allosteric potentiation in HEK-293 cells; type: cell-based
# T1 construct: expressed in transfected cells; host or cells: HEK-293
# Description: FIG. 4: Interaction of galantamine and pro-galantamine with a4β2 neuronal nicotinic acetylcholine receptor ectopically expressed in HEK-293 cells. The increase in response to acetylcholine in the presence of galantamine and Gln-1062, respectively, was determined by whole-cell patch clamp recording. Galantamine achieved a maximal enhancement of response of ˜40% whereas the pro-galantamine achieved a maximal enhancement of only ˜17%.
# Investigation of the allosteric modulation effect of drug candidates on nicotinic acetylcholine receptors (nAChRs) expressed in HEK-293 cells by electrophysiology. Results shown as FIG. 4.
# Single HEK-293 cells expressing either human α4β2, human α3β4, or chimeric chicken α7 (with mouse 5HT3) nAChR were plated on fibronectin-coated cover slips for 3 days before measurement. […] A programmable puller (Sutter, USA) was used to prepare a twin pair of ready for use pipettes. […] To evaluate an allosteric potentiating ligand (APL) effect of selected compounds on each subtype of nAChR, they were added to stimulating nicotine solutions at the following concentrations: 1, 5, 10, 50, 100, 500, 1,000, 5,000 and 10,000 nM, and solutions were applied to the cell surface during 500 ms pulses through the U-tube, and then corresponding currents, digitized to 10 kHz, were recorded for 10 s. […]
# brain cholinesterase = biological target: T2, brain cholinesterase (Mus musculus, UniProt P21836); type: biochemical; conditions: mouse brain homogenate, 200 μM acetylthiocholine; pro-galantamines up to 50 μM
# T2 construct: from tissue; host or cells: mouse brain homogenate
# T2 sequence (P21836 32-614): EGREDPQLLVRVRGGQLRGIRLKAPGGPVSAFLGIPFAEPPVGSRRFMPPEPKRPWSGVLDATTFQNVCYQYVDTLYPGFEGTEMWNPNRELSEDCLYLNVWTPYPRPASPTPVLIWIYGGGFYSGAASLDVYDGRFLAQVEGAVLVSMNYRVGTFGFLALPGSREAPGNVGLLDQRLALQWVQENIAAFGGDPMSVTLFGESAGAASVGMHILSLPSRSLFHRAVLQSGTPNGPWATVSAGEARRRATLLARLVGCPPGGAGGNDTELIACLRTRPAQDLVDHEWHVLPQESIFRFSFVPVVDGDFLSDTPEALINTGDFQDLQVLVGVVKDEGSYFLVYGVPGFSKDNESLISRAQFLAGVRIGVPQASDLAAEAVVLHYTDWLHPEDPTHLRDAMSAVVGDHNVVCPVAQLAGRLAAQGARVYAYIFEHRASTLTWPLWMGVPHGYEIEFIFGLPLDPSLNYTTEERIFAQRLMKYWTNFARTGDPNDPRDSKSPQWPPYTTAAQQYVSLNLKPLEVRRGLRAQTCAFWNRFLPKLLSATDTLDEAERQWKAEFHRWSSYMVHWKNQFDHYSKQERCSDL
# Description: A 20% mouse brain homogenate was used, supplemented with 200 μM of acetylthiocholine as substrate, and the initial reaction kinetics were measured according to Riddles P W, Blakeley R L, Zerner B., “Reassessment of Ellman's reagent” Methods Enzymol.
# The brain is removed from the animal (mouse), shock frozen in liquid nitrogen and stored at minus 80° C. until use. Before preparing the extract, the frozen brain is thawed on ice and the weight is determined. Ice cold buffer (130 mM NaCl, 5 mM KCl, 2.5 mM CaCl2, 1 mM MgCl2, 5 mM Glucose, 5 mM HEPES, pH 7.4) is added to the thawed mouse brain (1:4, weight to volume, resulting in a 20% brain homogenate). The tissue is then homogenized in a potter homogeniser on ice, moving the piston up and down 11 times at 240 rpm. The freshly prepared mouse brain homogenate is divided into aliquots.
# A modified Ellmann's esterase test is used. Briefly the method relies on the cleavage of the substrate acetylthiocholine to acetate and thiocholine. […] The inhibition is expressed as percent of the non inhibited reaction according to following equation: […]
# [3] = unmodified drug; cited from earlier work
# [4] = cited from earlier work
# T1 sequence (P43681 29-627 limits assumed): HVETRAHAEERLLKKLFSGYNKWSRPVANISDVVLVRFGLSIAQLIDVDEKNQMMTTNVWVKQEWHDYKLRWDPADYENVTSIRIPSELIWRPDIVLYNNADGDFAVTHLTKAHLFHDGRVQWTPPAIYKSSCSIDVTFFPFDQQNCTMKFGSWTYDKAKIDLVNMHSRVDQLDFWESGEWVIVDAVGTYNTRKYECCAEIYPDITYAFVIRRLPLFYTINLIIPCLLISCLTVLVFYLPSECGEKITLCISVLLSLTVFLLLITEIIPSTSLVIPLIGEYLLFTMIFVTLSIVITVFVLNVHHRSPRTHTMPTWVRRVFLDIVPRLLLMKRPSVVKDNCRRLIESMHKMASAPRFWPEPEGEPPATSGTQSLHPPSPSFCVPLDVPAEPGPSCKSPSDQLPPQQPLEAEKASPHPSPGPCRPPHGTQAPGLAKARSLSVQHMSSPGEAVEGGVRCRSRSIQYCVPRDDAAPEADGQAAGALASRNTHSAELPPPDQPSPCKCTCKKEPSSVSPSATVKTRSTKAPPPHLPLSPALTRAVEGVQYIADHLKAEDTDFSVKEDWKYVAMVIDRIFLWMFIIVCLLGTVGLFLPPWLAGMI
# T1 sequence (P17787 26-502): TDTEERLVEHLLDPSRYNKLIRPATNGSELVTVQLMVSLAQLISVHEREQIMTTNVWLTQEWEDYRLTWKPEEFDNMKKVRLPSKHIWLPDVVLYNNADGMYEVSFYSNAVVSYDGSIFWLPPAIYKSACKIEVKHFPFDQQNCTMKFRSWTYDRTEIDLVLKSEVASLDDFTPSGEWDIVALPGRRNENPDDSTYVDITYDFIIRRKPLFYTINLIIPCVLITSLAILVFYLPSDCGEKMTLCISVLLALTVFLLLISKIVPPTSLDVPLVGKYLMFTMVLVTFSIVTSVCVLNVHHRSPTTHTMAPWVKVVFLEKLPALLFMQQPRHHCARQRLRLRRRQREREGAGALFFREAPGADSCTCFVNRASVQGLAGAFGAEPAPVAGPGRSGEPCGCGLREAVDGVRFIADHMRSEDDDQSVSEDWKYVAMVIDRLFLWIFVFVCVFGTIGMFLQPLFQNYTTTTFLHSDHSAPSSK
structure (smiles),measurement,setting,value
"C=C[C@@]12C=C[C@H](O)C[C@@H]1Oc1c(OC)ccc(CNC)c12 [10,11-Seco-11,12-dehydro-galantamine, (3R,4aS,9bS)-6-Methoxy-9-methylaminomethyl-3,4,4a,9b-tetrahydro-9b-vinyl-dibenzofuran-3-ol]",melting point,,127 to 129 °C
CCC(=O)O[C@H]1C=C[C@@]23CCN(C)Cc4ccc(OC)c(c42)O[C@H]3C1 [GLN-0978],"Co (Brain), highest concentration achieved in mouse brain",in vivo,1985 ng/mL
same,Kp,"in vivo; mouse, iv, 3 mg/kg",6.9
COc1ccc2c3c1O[C@H]1C[C@@H](OC(=O)C(C)C)C=C[C@@]31CCN(C)C2 [GLN-0979],"Co (Brain), highest concentration achieved in mouse brain",in vivo,3166 ng/mL
same,Kp,"in vivo; mouse, iv, 3 mg/kg",6.2
CCCCCC(=O)O[C@H]1C=C[C@@]23CCN(C)Cc4ccc(OC)c(c42)O[C@H]3C1 [GLN-0993],"Co (Brain), highest concentration achieved in mouse brain",in vivo,2150 ng/mL
same,Kp,"in vivo; mouse, iv, 3 mg/kg",6.4
"COc1ccc2c3c1OC1C[C@@H](OC(=O)c4ccccc4)C=C[C@@]31CCN(C)C2 (stereo partly drawn) [GLN-1062, (4aS,6R,8aS)-4a,5,9,10,11,12-Hexahydro-3-methoxy-11-methyl-6H-benzofuro[3a,3,2-ef][2]benzazepin-6-ol, benzoate (ester)]",potency relative to galantamine in reversing scopolamine-induced amnesia,[1],approximately 4 times
same,Kp,"in vivo; SAM, mouse",> 19
same,"Co (Brain), highest concentration achieved in mouse brain",in vivo,4812 ng/mL
same,concentration of GLN-1062 in blood at start of curve,"in vivo; mouse, 3 mg/kg, FIG. 5b",about 0.3 μg/g
same,Kp,"in vivo; mouse, iv, 3 mg/kg",19.3
same,maximal enhancement of response to acetylcholine,[2],~17%
same,inhibition of brain cholinesterase,brain cholinesterase,"little, if any cholinesterase inhibitory activity"
CCC(C)C(=O)O[C@H]1C=C[C@@]23CCN(C)Cc4ccc(OC)c(c42)OC3C1 (stereo partly drawn) [GLN-1067],"Co (Brain), highest concentration achieved in mouse brain",in vivo,4665 ng/mL
same,Kp,"in vivo; mouse, iv, 3 mg/kg",7.5
COc1ccc2c3c1OC1C[C@@H](OC(=O)C4CC4)C=C[C@@]31CCN(C)C2 (stereo partly drawn) [GLN-1076],"Co (Brain), highest concentration achieved in mouse brain",in vivo,1245 ng/mL
same,Kp,"in vivo; mouse, iv, 3 mg/kg",1.1
COc1ccc2c3c1O[C@H]1C[C@@H](O)C=C[C@@]31CCN(C)C2 [Galantamine],"Co (Brain), highest concentration achieved in mouse brain",in vivo,1741 ng/mL
same,Kp,"in vivo; mouse, 3 mg/kg",~1.3
same,maximal enhancement of response to acetylcholine,[2],~40%
same,brain-to-plasma ratio,[3],~1.3
same,"tissue to plasma ratio (T/P), spleen",[4]; female rat,~20
same,"tissue to plasma ratio (T/P), kidney",[4]; male and female rat,10-15
same,"tissue to plasma ratio (T/P), salivary and adrenal gland",[4]; male and female rat,7-14
same,brain to plasma ratio (T/P),[4]; rat,~1.5
same,"tissue to plasma ratio (T/P), lung, liver, heart, skeletal muscle and testes",[4]; rat,2-4
